In patent US20210130445A1 (priority 2019, published 2021):

Experiments:
[1] = design: species or system human; details: in vivo, sc
[2] = design: species or system human; unit not given here; details: in vivo

Molecule | patient-reported pain [1] | duration of significant pain alleviation [2]
C[C@@H]1[C@H](c2c(F)ccc(F)c2F)C[C@H](NC(=O)c2cnc3c(c2)C[C@@]2(C3)C(=O)Nc3ncccc32)C(=O)N1CC(F)(F)F [atogepant] | pain free | –
onabotulinumtoxinA | pain free | one to about six
erenumab (antibody, chains of the INN, looked up, V domains shown) VH: QVQLVESGGGVVQPGRSLRLSCAASGFTFSSFGMHWVRQAPGKGLEWVAVISFDGSIKYSVDSVKGRFTISRDNSKNTLFLQMNSLRAEDTAVYYCARDRLNYYDSSGYYHYKYYGMAVWGQGTTVTVSS VL: QSVLTQPPSVSAAPGQKVTISCSGSSSNIGNNYVSWYQQLPGTAPKLLIYDNNKRPSGIPDRFSGSKSGTSTTLGITGLQTGDEADYYCGTWDSRLSAVVFGGGTKLTVL | – | one to about six
